Measurements as given in US8815882B2, “Pyrazole aminopyrimidine derivatives as LRRK2 modulators” (Genentech, Inc., priority 2010, dated 2014).
Where two headings read alike, the source gives them in different places.

Biological target: T1, LRRK2 (Homo sapiens, UniProt Q5S007, G2019S)
T1 construct: purchased Invitrogen PV4882 (lot 567054A)
Assay: In Vitro LRRK2 Assay (LabChip 3000, fluorescently-labeled peptide substrate, ATP)
Format: biochemical
Summary of the method: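 Read-out was LabChip capillary electrophoresis, resolving phospho- from non-phospho-peptide by fluorescence intensity. The kinase reaction combined enzyme, ATP, test compound and labeled peptide (4 μM working dilution) for 2 h in darkness before stop solution. Values were reported as Ki, from a tight-binding model with Et, S and Km, or as IC50 or percent inhibition.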

[1] = read-out: LRRK2 Ki (KI), Table 8
[2] = Table 10, LRRK2 Ki (micromolar), read-out: LRRK2 Ki (KI)
[3] = read-out: LRRK2 Ki (KI), Table 7
[4] = Table 9, LRRK2 Ki (micromolar), read-out: LRRK2 Ki (KI)

T1 sequence (Q5S007 whole entry G2019S): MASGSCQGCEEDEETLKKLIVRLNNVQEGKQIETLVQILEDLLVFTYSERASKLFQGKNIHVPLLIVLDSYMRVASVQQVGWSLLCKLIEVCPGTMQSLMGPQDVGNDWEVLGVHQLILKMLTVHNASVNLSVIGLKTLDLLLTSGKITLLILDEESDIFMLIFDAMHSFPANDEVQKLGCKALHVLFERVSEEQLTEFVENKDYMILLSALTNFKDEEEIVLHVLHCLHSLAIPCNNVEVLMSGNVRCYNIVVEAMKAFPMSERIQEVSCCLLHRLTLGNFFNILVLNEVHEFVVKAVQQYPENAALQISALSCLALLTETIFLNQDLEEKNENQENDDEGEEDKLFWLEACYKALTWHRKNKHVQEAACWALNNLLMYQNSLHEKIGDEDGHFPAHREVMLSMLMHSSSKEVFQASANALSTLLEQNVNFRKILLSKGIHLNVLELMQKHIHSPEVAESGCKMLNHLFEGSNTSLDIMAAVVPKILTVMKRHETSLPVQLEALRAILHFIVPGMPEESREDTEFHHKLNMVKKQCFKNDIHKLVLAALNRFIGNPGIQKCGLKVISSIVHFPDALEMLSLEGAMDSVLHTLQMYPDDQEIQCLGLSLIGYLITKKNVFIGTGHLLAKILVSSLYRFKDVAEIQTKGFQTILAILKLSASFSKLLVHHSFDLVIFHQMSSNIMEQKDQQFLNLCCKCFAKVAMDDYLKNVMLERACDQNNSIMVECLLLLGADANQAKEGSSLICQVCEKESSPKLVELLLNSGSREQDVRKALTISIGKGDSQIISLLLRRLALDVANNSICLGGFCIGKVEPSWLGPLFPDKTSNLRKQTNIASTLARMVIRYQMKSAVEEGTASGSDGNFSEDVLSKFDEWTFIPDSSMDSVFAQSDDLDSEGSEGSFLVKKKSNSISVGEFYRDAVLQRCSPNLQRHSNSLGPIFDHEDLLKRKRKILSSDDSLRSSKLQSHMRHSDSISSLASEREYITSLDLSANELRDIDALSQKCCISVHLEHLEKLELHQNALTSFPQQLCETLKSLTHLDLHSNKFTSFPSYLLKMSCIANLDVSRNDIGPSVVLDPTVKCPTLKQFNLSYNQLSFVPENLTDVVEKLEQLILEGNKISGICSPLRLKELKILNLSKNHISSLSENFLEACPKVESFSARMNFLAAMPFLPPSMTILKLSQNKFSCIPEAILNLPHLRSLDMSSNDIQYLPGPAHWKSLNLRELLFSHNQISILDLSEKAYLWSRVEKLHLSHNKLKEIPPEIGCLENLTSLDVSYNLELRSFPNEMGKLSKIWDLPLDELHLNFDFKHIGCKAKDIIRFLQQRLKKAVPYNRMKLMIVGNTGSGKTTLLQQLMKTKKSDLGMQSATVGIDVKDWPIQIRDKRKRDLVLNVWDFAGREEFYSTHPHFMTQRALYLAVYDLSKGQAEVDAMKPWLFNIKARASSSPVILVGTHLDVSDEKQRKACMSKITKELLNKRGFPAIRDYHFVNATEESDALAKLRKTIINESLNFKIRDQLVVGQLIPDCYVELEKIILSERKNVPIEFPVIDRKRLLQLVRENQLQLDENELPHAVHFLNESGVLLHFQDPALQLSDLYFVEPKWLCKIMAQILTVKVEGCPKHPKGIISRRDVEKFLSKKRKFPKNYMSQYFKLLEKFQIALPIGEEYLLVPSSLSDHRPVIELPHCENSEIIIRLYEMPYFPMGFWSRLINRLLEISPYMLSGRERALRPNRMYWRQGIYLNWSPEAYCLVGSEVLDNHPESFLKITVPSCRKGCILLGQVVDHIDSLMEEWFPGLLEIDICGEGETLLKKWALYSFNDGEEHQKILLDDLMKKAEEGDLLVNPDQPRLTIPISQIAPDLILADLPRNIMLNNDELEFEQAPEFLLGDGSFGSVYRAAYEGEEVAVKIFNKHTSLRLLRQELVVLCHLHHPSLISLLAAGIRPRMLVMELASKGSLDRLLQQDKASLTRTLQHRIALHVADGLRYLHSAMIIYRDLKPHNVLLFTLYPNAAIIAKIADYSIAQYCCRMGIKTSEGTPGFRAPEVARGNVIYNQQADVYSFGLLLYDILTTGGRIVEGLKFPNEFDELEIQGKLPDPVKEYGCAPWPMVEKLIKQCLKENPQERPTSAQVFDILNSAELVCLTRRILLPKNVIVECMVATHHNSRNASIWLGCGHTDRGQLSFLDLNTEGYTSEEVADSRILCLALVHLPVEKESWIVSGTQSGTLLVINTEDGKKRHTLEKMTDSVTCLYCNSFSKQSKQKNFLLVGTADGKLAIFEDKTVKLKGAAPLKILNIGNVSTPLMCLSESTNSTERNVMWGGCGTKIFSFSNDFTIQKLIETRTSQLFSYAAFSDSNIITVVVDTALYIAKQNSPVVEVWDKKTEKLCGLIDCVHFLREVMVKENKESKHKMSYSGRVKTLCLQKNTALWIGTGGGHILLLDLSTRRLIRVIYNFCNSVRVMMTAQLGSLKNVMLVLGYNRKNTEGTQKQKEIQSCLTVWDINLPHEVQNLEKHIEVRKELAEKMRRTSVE

Row | SMILES | Ki [1] [nM] | other results
1 | CCNc1nc(Nc2cn(C3CCN(CCOC)CC3)nc2C)ncc1C(F)(F)F [Example 282, N4-Ethyl-N2-{1-[1-(2-methoxy-ethyl)-piperidin-4-yl]-3-methyl-1H-pyrazol-4-yl}-5-trifluoromethyl-pyrimidine-2,4-diamine] | 5.4 | 
2 | CNc1nc(Nc2cnn([C@@H](C)C(=O)N(C)C)c2C)ncc1C(F)(F)F [Example 414, (S)-N,N-dimethyl-2-(5-methyl-4-(4-(methylamino)-5-(trifluoromethyl)pyrimidin-2-ylamino)-1H-pyrazol-1-yl)propanamide] |  | Ki [2]: 30 nM
3 | CNc1nc(Nc2cn(-c3ccc(F)cc3)nc2C)ncc1Br [Example 108, 5-bromo-N2-(1-(4-fluorophenyl)-3-methyl-1H-pyrazol-4-yl)-N4-methylpyrimidine-2,4-diamine] | 0.3 | 
4 | CNc1nc(Nc2cn(Cc3ccccn3)nc2C)ncc1C(F)(F)F [Example 213, N4-methyl-N2-(3-methyl-1-(pyridin-2-ylmethyl)-1H-pyrazol-4-yl)-5-(trifluoromethyl) pyrimidine-2,4-diamine] | 2.9 | 
5 | CNc1nc(Nc2cn(S(=O)(=O)C3CC3)nc2C)ncc1C(F)(F)F [Example 170, N2-(1-(cyclopropyl-sulfonyl)-3-methyl-1H-pyrazol-4-yl)-N4-methyl-5-(trifluoromethyl) pyrimidine-2,4-diamine] | 2 | 
6 | CCNc1nc(Nc2cnn(C3CCN(C4COC4)CC3F)c2Cl)ncc1C(F)(F)F (stereo not drawn) [Example 306, N2-[5-Chloro-1-(3-fluoro-1-oxetan-3-yl-piperidin-4-yl)-1H-pyrazol-4-yl]-N4-ethyl-5-trifluoromethyl-pyrimidine-2,4-diamine] | 0.6 | 
7 | CCC(C)S(=O)(=O)n1ncc(Nc2ncc(C(F)(F)F)c(NC)n2)c1C (stereo not drawn) [Example 219, N2-(1-(sec-butylsulfonyl)-5-methyl-1H-pyrazol-4-yl)-N4-methyl-5-(trifluoromethyl) pyrimidine-2,4-diamine] | 6.7 | 
8 | CCNc1nc(Nc2cn([C@H]3CCCN(C4COC4)C3)nc2C)ncc1C(F)(F)F [Example 308, N4-Ethyl-N2-[3-methyl-1-((S)-1-oxetan-3-yl-piperidin-3-yl)-1H-pyrazol-4-yl]-5-trifluoromethyl-pyrimidine-2,4-diamine] | 8.5 | 
9 | COc1nc(Nc2cn(-c3ccc(C#N)cc3)nc2C)ncc1Cl [Example 68, 4-(4-(5-chloro-4-methoxy-pyrimidin-2-ylamino)-3-methyl-1H-pyrazol-1-yl)benzonitrile] |  | Ki [3]: 2.4 nM
10 | CNc1nc(Nc2cnn(C3CCN(C4COC4)CC3F)c2Cl)ncc1C(F)(F)F (stereo not drawn) [Example 305, N2-[5-Chloro-1-(3-fluoro-1-oxetan-3-yl-piperidin-4-yl)-1H-pyrazol-4-yl]-N4-methyl-5-trifluoromethyl-pyrimidine-2,4-diamine] | 2.2 | 
11 | CNc1nc(Nc2cnn(C)c2OC)ncc1C(F)(F)F [Example 84, N^2-(5-Methoxy-1-methyl-1H-pyrazol-4-yl)-N^4-methyl-5-trifluoromethyl-pyrimidine-2,4-diamine] |  | Ki [3]: 74.2 nM
12 | CNc1nc(Nc2cnn(C(C)(C)COC)c2C)ncc1C(F)(F)F [Example 203, N2-(1-(1-methoxy-2-methylpropan-2-yl)-5-methyl-1H-pyrazol-4-yl)-N4-methyl-5-(trifluoromethyl) pyrimidine-2,4-diamine] | 42 | 
13 | CNc1nc(Nc2cn(Cc3cccc(C)n3)nc2C)ncc1C(F)(F)F [Example 293, N4-Methyl-N2-[3-methyl-1-(6-methyl-pyridin-2-ylmethyl)-1H-pyrazol-4-yl]-5-trifluoromethyl-pyrimidine-2,4-diamine] | 0.6 | 
14 | CNc1nc(Nc2cn(CC3(C)COC3)nc2C)ncc1Cl [Example 114, 5-chloro-N4-methyl-N2-(3-methyl-1-((3-methyloxetan-3-yl)methyl)-1H-pyrazol-4-yl)pyrimidine-2,4-diamine] | 19 | 
15 | CCNc1nc(Nc2cn(C(C)(C)C#N)nc2C)ncc1C(F)(F)F [Example 451, 2-[4-(4-Ethylamino-5-trifluoromethyl-pyrimidin-2-ylamino)-3-methyl-pyrazol-1-yl]-2-methyl-propionitrile] |  | Ki [2]: 0.3 nM
16 | CNc1nc(Nc2cn(C3CCOCC3)nc2C)ncc1C(F)(F)F [Example 32, N^4-methyl-N^2-(3-methyl-1-(tetrahydro-2H-pyran-4-yl)-1H-pyrazol-4-yl)-5-(trifluoromethyl) pyrimidine-2,4-diamine] |  | Ki [3]: 24 nM
17 | CNc1nc(Nc2cnn(C)c2C#N)ncc1C(F)(F)F [Example 215, 1-methyl-4-(4-(methylamino)-5-(trifluoromethyl)pyrimidin-2-ylamino)-1H-pyrazole-5-carbonitrile] | 3.2 | 
18 | CNc1nc(Nc2cnn(-c3ccc(F)cc3)c2C)ncc1C#N [Example 386, 2-[1-(4-Fluoro-phenyl)-5-methyl-1H-pyrazol-4-ylamino]-4-methylamino-pyrimidine-5-carbonitrile] |  | Ki [4]: 95.9 nM

Row | SMILES | Ki [1] [nM] | other results
19 | CNc1nc(Nc2cn(C(C)(C)c3cnn(C)c3)nc2C)ncc1C(F)(F)F [Example 340, N4-methyl-N2-(3-methyl-1-(2-(1-methyl-1H-pyrazol-4-yl)propan-2-yl)-1H-pyrazol-4-yl)-5-(trifluoromethyl) pyrimidine-2,4-diamine] | 0.3 | 
20 | COc1nc(Nc2cnn(C)c2C)ncc1C#N [Example 375, 2-(1,5-dimethyl-1H-pyrazol-4-ylamino)-4-methoxy-pyrimidine-5-carbonitrile] |  | Ki [4]: 145 nM
21 | CCNc1nc(Nc2cn(C(C)(C)c3nncn3C)nc2C)ncc1C(F)(F)F [Example 337, N4-ethyl-N2-(3-methyl-1-(2-(4-methyl-4H-1,2,4-triazol-3-yl)propan-2-yl)-1H-pyrazol-4-yl)-5-(trifluoromethyl) pyrimidine-2,4-diamine] | 7.6 | 
22 | CCNc1nc(Nc2cn(S(=O)(=O)C3CC3)nc2C)ncc1C(F)(F)F [Example 171, N2-(1-(cyclopropyl-sulfonyl)-3-methyl-1H-pyrazol-4-yl)-N4-ethyl-5-(trifluoromethyl) pyrimidine-2,4-diamine] | 0.9 | 
23 | CNc1nc(Nc2cn(C[C@H](C)OC)nc2C)ncc1C(F)(F)F [Example 189, (S)-N2-(1-(2-methoxypropyl)-3-methyl-1H-pyrazol-4-yl)-N4-methyl-5-(trifluoromethyl) pyrimidine-2,4-diamine] | 11.8 | 
24 | CCNc1nc(Nc2cn(S(=O)(=O)C(C)C)nc2C)ncc1C(F)(F)F [Example 216, N4-ethyl-N2-(1-(isopropylsulfonyl)-3-methyl-1H-pyrazol-4-yl)-5-(trifluoromethyl) pyrimidine-2,4-diamine] | 3.9 | 
25 | CCNc1nc(Nc2cn(C(C)(C)c3ncn(C)n3)nc2C)ncc1C(F)(F)F [Example 338, N4-ethyl-N2-(3-methyl-1-(2-(1-methyl-1H-1,2,4-triazol-3-yl)propan-2-yl)-1H-pyrazol-4-yl)-5-(trifluoromethyl) pyrimidine-2,4-diamine] | 0.3 | 
26 | CNc1nc(Nc2cc(C(C)C)nn2C)ncc1C(F)(F)F [Example 38, N^2-(3-isopropyl-1-methyl-1H-pyrazol-5-yl)-N^4-methyl-5-(trifluoromethyl) pyrimidine-2,4-diamine] |  | Ki [3]: 12 nM
27 | CNc1nc(Nc2cnn(C3CCOCC3)c2Cl)ncc1C(F)(F)F [Example 226, N2-(5-chloro-1-(tetrahydro-2H-pyran-4-yl)-1H-pyrazol-4-yl)-N4-methyl-5-(trifluoromethyl) pyrimidine-2,4-diamine] | 0.7 | 
28 | CNc1nc(Nc2cnn(CCN3CCOCC3)c2)ncc1C(F)(F)F [Example 3, N^4-methyl-N^2-(1-(2-morpholinoethyl)-1H-pyrazol-4-yl)-5-(trifluoromethyl) pyrimidine-2,4-diamine] |  | Ki [3]: 15 nM
29 | CNc1nc(Nc2cnn(CC(F)(F)F)c2C)ncc1C(F)(F)F [Example 58, N^4-methyl-N^2-(5-methyl-1-(2,2,2-trifluoroethyl)-1H-pyrazol-4-yl)-5-(trifluoromethyl) pyrimidine-2,4-diamine] |  | Ki [3]: 3.6 nM
30 | CCCn1cc(Nc2ncc(C#N)c(NC)n2)c(C)n1 [Example 387, 4-Methylamino-2-(3-methyl-1-propyl-1H-pyrazol-4-ylamino)-pyrimidine-5-carbonitrile] |  | Ki [4]: 5.4 nM
31 | CNc1nc(Nc2cn(C(C)(C)c3nnc(C)o3)nc2C)ncc1C(F)(F)F [Example 339, N4-methyl-N2-(3-methyl-1-(2-(5-methyl-1,3,4-oxadiazol-2-yl)propan-2-yl)-1H-pyrazol-4-yl)-5-(trifluoromethyl) pyrimidine-2,4-diamine] | 11.7 | 
32 | CNc1nc(Nc2cnn(S(=O)(=O)C(C)C)c2C)ncc1C(F)(F)F [Example 218, N2-(1-(isopropylsulfonyl)-5-methyl-1H-pyrazol-4-yl)-N4-methyl-5-(trifluoromethyl) pyrimidine-2,4-diamine] | 8.1 | 
33 | CNc1nc(Nc2cnn(Cc3ncccn3)c2C)ncc1C(F)(F)F [Example 315, N4-Methyl-N2-(5-methyl-1-pyrimidin-2-ylmethyl-1H-pyrazol-4-yl)-5-trifluoromethyl-pyrimidine-2,4-diamine] | 1.4 | 
34 | CNc1nc(Nc2cn(CC(F)(F)F)nc2C)ncc1C(F)(F)F [Example 254, N4-Methyl-N2-[3-methyl-1-(2,2,2-trifluoro-ethyl)-1H-pyrazol-4-yl]-5-trifluoromethyl-pyrimidine-2,4-diamine] | 7.7 | 
35 | CCNc1nc(Nc2cn(C3COC3)nc2C)ncc1C(F)(F)F [Example 97, N4-ethyl-N2-(3-methyl-1-(oxetan-3-yl)-1H-pyrazol-4-yl)-5-(trifluoromethyl) pyrimidine-2,4-diamine] | 1.6 | 
36 | CCNc1nc(Nc2cnn(C3CCN(C(=O)C(C)C)CC3)c2C)ncc1C(F)(F)F [Example 181, l-(4-(4-(4-(ethylamino)-5-(trifluoromethyl)pyrimidin-2-ylamino)-5-methyl-1H-pyrazol-1-yl)piperidin-1-yl)-2-methylpropan-1-one] | 0.82 | 
